Earlier results as cited in US20070184084A1, “IMPLANTABLE ELASTOMERIC CAPROLACTONE DEPOT COMPOSITIONS AND USES THEREOF” (priority 2003, published 2007).

Settings: reported value

CC(=O)OCC(COC(C)=O)OC(C)=O [triacetin]
solubility in water: 7.17 grams in 100 ml of water
